SMILES strings stand for the structures.

Broadly, the IC50 is the concentration at which inhibition is half-maximal.

The assay concerns primary murine skeletal myocytes. In words: TAG accumulation in primary murine skeletal myocytes. The class given is cell-based. Particulars: Mus musculus; primary murine skeletal myocytes; read-out: Activity Score (IC50), triacylglyceride (TAG) accumulation.
Turning to `O=C(Nc1nc(-c2ccc(OC(F)F)cc2)cs1)c1ccc(OCC(=O)N2CCOCC2)cc1` [Cpd. 40, N-(4-(4-(difluoromethoxy)phenyl)thiazol-2-yl)-4-(2-morpholino-2-oxoethoxy)benzamide], the IC50 is less than 1000 nM.

On to `COc1ccc(-c2csc(NC(=O)c3ccc(OCC(=O)N4CCOCC4)cc3)n2)cc1` [Cpd. 41, N-(4-(4-methoxyphenyl)thiazol-2-yl)-4-(2-morpholino-2-oxoethoxy)benzamide], for which the IC50 was less than 1000 nM.

Regarding `COCCOc1ccc(-c2csc(NC(=O)c3ccc(OCC(=O)N4CCOCC4)cc3)n2)cc1` [Cpd. 43, N-(4-(4-(2-methoxyethoxy)phenyl)thiazol-2-yl)-4-(2-morpholino-2-oxoethoxy)benzamide], the IC50 was less than 1000 nM.

As to `CCc1ccc(-c2csc(NC(=O)c3ccc(OCC(=O)N4CCOCC4)cc3)n2)cc1` [Cpd. 44, N-(4-(4-ethylphenyl)thiazol-2-yl)-4-(2-morpholino-2-oxoethoxy)benzamide], the IC50 is less than 1000 nM.

Take `CC(C)c1ccc(-c2csc(NC(=O)c3ccc(OCC(=O)N4CCOCC4)cc3)n2)cc1` [Cpd. 45, N-(4-(4-isopropylphenyl)thiazol-2-yl)-4-(2-morpholino-2-oxoethoxy)benzamide]: the IC50 was less than 1000 nM.

`O=C(Nc1nc(-c2ccc(F)cc2)cs1)c1ccc(OCC(=O)N2CCOCC2)cc1` [Cpd. 46, N-(4-(4-fluorophenyl)thiazol-2-yl)-4-(2-morpholino-2-oxoethoxy)benzamide]: the IC50 was less than 1000 nM.

On to `Cc1ccccc1-c1csc(NC(=O)c2ccc(OCC(=O)N3CCOCC3)cc2)n1` [Cpd. 47, 4-(2-morpholino-2-oxoethoxy)-N-(4-(o-tolyl)thiazol-2-yl)benzamide], for which the IC50 is less than 1000 nM.

For the compound `O=C(Nc1nc(-c2ccccc2Cl)cs1)c1ccc(OCC(=O)N2CCOCC2)cc1` [Cpd. 48, N-(4-(2-chlorophenyl)thiazol-2-yl)-4-(2-morpholino-2-oxoethoxy)benzamide], the IC50 is less than 1000 nM.

Regarding `O=C(Nc1nc(-c2ccccc2F)cs1)c1ccc(OCC(=O)N2CCOCC2)cc1` [Cpd. 49, N-(4-(2-fluorophenyl)thiazol-2-yl)-4-(2-morpholino-2-oxoethoxy)benzamide], the IC50 was less than 1000 nM.

With `COc1ccccc1-c1csc(NC(=O)c2ccc(OCC(=O)N3CCOCC3)cc2)n1` [Cpd. 50, N-(4-(2-methoxyphenyl)thiazol-2-yl)-4-(2-morpholino-2-oxoethoxy)benzamide], the IC50 was less than 1000 nM.

`Cc1cccc(-c2csc(NC(=O)c3ccc(OCC(=O)N4CCOCC4)cc3)n2)c1` [Cpd. 51, 4-(2-morpholino-2-oxoethoxy)-N-(4-(m-tolyl)thiazol-2-yl)benzamide]: the IC50 is less than 1000 nM.

On to `O=C(Nc1nc(-c2cccc(Cl)c2)cs1)c1ccc(OCC(=O)N2CCOCC2)cc1` [Cpd. 52, N-(4-(3-chlorophenyl)thiazol-2-yl)-4-(2-morpholino-2-oxoethoxy)benzamide], for which the concentration for half-maximal inhibition (IC50) was less than 1000 nM.

On to `O=C(Nc1nc(-c2cccc(F)c2)cs1)c1ccc(OCC(=O)N2CCOCC2)cc1` [Cpd. 53, N-(4-(3-fluorophenyl)thiazol-2-yl)-4-(2-morpholino-2-oxoethoxy)benzamide], for which the IC50 was less than 1000 nM.

On to `COc1ccc(-c2csc(NC(=O)c3ccc(OCC(=O)N4CCOCC4)cc3)n2)c(Cl)c1` [Cpd. 54, N-(4-(2-chloro-4-methoxyphenyl)thiazol-2-yl)-4-(2-morpholino-2-oxoethoxy)benzamide], for which the IC50 is less than 1000 nM.

With `CC(C)Oc1ccc(-c2csc(NC(=O)c3ccc(OCC(=O)N4CCOCC4)cc3)n2)c(Cl)c1` [Cpd. 55, N-(4-(2-chloro-4-isopropoxyphenyl)thiazol-2-yl)-4-(2-morpholino-2-oxoethoxy)benzamide], the IC50 was less than 1000 nM.

For the compound `COc1ccc(-c2csc(NC(=O)c3ccc(OCC(=O)N4CCOCC4)cc3)n2)c(F)c1` [Cpd. 56, N-(4-(2-fluoro-4-methoxyphenyl)thiazol-2-yl)-4-(2-morpholino-2-oxoethoxy)benzamide], the IC50 is less than 1000 nM.

With `COc1ccc(-c2csc(NC(=O)c3ccc(OCC(N)=O)cc3)n2)c(Cl)c1` [Cpd. 57, 4-(2-amino-2-oxoethoxy)-N-(4-(2-chloro-4-methoxyphenyl)thiazol-2-yl)benzamide], the IC50 was 1000 to 10000 nM.

Take `CNC(=O)COc1ccc(C(=O)Nc2nc(-c3ccc(OC)cc3Cl)cs2)cc1` [Cpd. 58, N-(4-(2-chloro-4-methoxyphenyl)thiazol-2-yl)-4-(2-(methylamino)-2-oxoethoxy)benzamide]: the IC50 was less than 1000 nM.

On to `CCNC(=O)COc1ccc(C(=O)Nc2nc(-c3ccc(OC)cc3Cl)cs2)cc1` [Cpd. 59, N-(4-(2-chloro-4-methoxyphenyl)thiazol-2-yl)-4-(2-(ethylamino)-2-oxoethoxy)benzamide], for which the IC50 was less than 1000 nM.

`COc1ccc(-c2csc(NC(=O)c3ccc(OCC(=O)N(C)C)cc3)n2)c(Cl)c1` [Cpd. 60, N-(4-(2-chloro-4-methoxyphenyl)thiazol-2-yl)-4-(2-(dimethylamino)-2-oxoethoxy)benzamide]: the IC50 is less than 1000 nM.

Consider `COc1ccc(-c2csc(NC(=O)c3ccc(NCC(=O)N4CCOCC4)c(OC)c3)n2)cc1` [Cpd. 75, 3-methoxy-N-(4-(4-methoxyphenyl)thiazol-2-yl)-4-((2-morpholino-2-oxoethyl)amino)benzamide], for which the IC50 is less than 1000 nM.

As for `COc1ccc(-c2csc(NC(=O)CCC(=O)N3CCOc4ccccc43)n2)cc1` [Cpd. 81, 4-(2,3-dihydro-4H-benzo[b][1,4]oxazin-4-yl)-N-(4-(4-methoxyphenyl)thiazol-2-yl)-4-oxobutanamide], the IC50 was less than 1000 nM.

`COc1ccc(-c2csc(NC(=O)CCC(=O)N3CCOCC3)n2)cc1` [Cpd. 82, N-(4-(4-methoxyphenyl)thiazol-2-yl)-4-morpholino-4-oxobutanamide]: the IC50 lay within 1000 to 10000 nM.

As to `COc1cc(C(=O)Nc2cccc(-c3ccccc3)c2)ccc1OCC(=O)N1CCOCC1` [Cpd. 83, N-([1,1′-biphenyl]-3-yl)-3-methoxy-4-(2-morpholino-2-oxoethoxy)benzamide], the IC50 was more than 10000 nM.

On to `COc1cc(C(=O)Nc2nc(-c3ccccc3)c(Cc3ccccc3)s2)ccc1OCC(=O)N1CCOCC1` [Cpd. 84, N-(5-benzyl-4-phenylthiazol-2-yl)-3-methoxy-4-(2-morpholino-2-oxoethoxy)benzamide], for which the IC50 is less than 1000 nM.

For the compound `COc1cc(C(=O)Nc2nc(Cc3ccccc3)cs2)ccc1OCC(=O)N1CCOCC1` [Cpd. 85, N-(4-benzylthiazol-2-yl)-3-methoxy-4-(2-morpholino-2-oxoethoxy)benzamide], the IC50 fell in the range of 1000 to 10000 nM.

Turning to `O=C(Nc1nc2ccccc2s1)c1ccc(OCC(=O)N2CCOCC2)cc1` [Cpd. 87, N-(benzo[d]thiazol-2-yl)-4-(2-morpholino-2-oxoethoxy)benzamide], the IC50 was more than 10000 nM.

In the case of `COc1ccc2nc(NC(=O)c3ccc(OCC(=O)N4CCOCC4)cc3)sc2c1` [Cpd. 88, N-(6-methoxybenzo[d]thiazol-2-yl)-4-(2-morpholino-2-oxoethoxy)benzamide], the IC50 lay in the range of 1000 to 10000 nM.

For `COc1ccc(-c2csc(NCc3ccc(OCC(=O)N4CCOCC4)c(OC)c3)n2)cc1` [Cpd. 89, 2-(2-methoxy-4-(((4-(4-methoxyphenyl)thiazol-2-yl)amino)methyl)phenoxy)-1-morpholinoethan-1-one], the IC50 was 1000 to 10000 nM.

The values above are taken from patent publication US11028061B2, “Modulators of myocyte lipid accumulation and insulin resistance and methods of use thereof” (Sanford Burnham Prebys Medical Discovery Institute, priority 2015, dated 2021).
